Where two headings read alike, the source gives them in different places.
Test system: 6C3HED lymphosarcoma
Experiment: animal or person
Assay type: in vivo
Settings: for inhibition in vivo at 18.75 mg/kg: read-out: % inhibition of tumor growth, oral, 18.75 mg/kg, BIDX 8; for inhibition in vivo at 37.5 mg/kg: read-out: % inhibition of tumor growth, oral, 37.5 mg/kg, BIDX 8; for inhibition in vivo at 75 mg/kg: read-out: % inhibition of tumor growth, oral, 75 mg/kg, BIDX 8
Experimental: The compounds were tested in C3H mice bearing a 6C3HED lymphosarcoma, also known as the Gardner lymphosarcoma (GLS), and in a variety of human tumor xenografts in CD1 nu/nu mice, including CX-1, LX-1, HXGC3, and VRC5. The 6C3HED lymphosarcoma was obtained from the Division of Cancer Treatment, National […] Institute, Tumor Bank, maintained at E. G. and G. Mason Research (Worcester, Mass.). The CX-1 human colon carcinoma and the LX-1 human lung carcinoma xenografts were obtained from the National Cancer Institute. The HXGC3 and VRC5 human colon xenografts were obtained from Dr. P. J. Houghton, St. Jude Children's Hospital in Memphis (see Br. J. Cancer, 37, 213 (1978)). First passage tumor was stored in liquid nitrogen using standard techniques. The transplanted tumor was reestablished from the Tumor Bank every six months or as needed. The tumor was maintained by serial passage twice weekly in C3H mice.
In the procedure the tumor was removed from passage animals and minced into 1- to 3-mm square fragments using sterile techniques. Tumor pieces were checked for sterility using both Antibiotic Medium 1 and Brain Heart Infusion (Difco, Detroit, Mich.). Recipient mice were shaved and tumor pieces were implanted subcutaneously in the auxiliary region by trocar. Drug therapy on the appropriate schedule was initiated on the day after tumor implant for 6C3HED and after a seven (7) day delay for xenografts (or other delay as noted in Table 2). The compound being tested was mixed with 2.5% Emulphor EL620 from GAF Corporation (1:40 dilution in saline). Food and water were provided ad libitium. The drug was administered orally in 0.5 ml of 2.5% Emulphor (unless otherwise indicated). The tumor was measured the day after treatment ended with two dimensional measurements (width and length) of the tumor taken using automated digital calipers interfaced to a microcomputer. Approximate weight for the tumor was calculated using the following formula [Worzalla, J. F., et al., Invest. New Drugs, 8, 241 (1990], (tumor weight in mg)=(width in mm)^2 ×(length in mm)/2.
At least one control group of an equal number of mice was treated with the same volume of 2.5% Emulphor only. The percent inhibition was determined by subtracting the ratio of the mean tumor size of the test group relative to the control group from one and multiplying the result times 100.
The results of several experiments in mice bearing a 6C3HED lymphosarcoma (or other tumor where indicated) when the indicated compounds were administered are provided in Table 2. In Table 2, column 1 gives the Example number of the compound used, column 2 lists the dose level in mg/kg, column 3 provides the percent inhibition of tumor growth, column 4 gives the number of mice which died relative to the total number of animals in the group, column 5 gives the method of administration of the compound, and column 6 gives the dosage schedule. The protocol used with other tumors was the same as with the 6C3HED lymphosarcoma.

[1] = Mus musculus, 6C3HED, ip, read-out: % inhibition of tumor growth, IP, 150 mg/kg, DX 8
[2] = Mus musculus, 6C3HED, ip, read-out: % inhibition of tumor growth, IP, 300 mg/kg, DX 8
[3] = Mus musculus, 6C3HED, po, read-out: % inhibition of tumor growth, oral, 150 mg/kg, BIDX 8
[4] = Mus musculus, 6C3HED, po, read-out: % inhibition of tumor growth, oral, 300 mg/kg, BIDX 8
[5] = Mus musculus, 6C3HED, po, read-out: % inhibition of tumor growth, oral, 150 mg/kg, DX 8
[6] = Mus musculus, 6C3HED, po, read-out: % inhibition of tumor growth, oral, 300 mg/kg, DX 8

Compound | Tox/Tot (mice which died / total) (IP, 300 mg/kg, DX 8) | inhibition in vivo at 150 mg/kg [3] | inhibition in vivo at 300 mg/kg [4] | Tox/Tot (mice which died / total) (oral, 150 mg/kg, BIDX 8) | Tox/Tot (mice which died / total) (oral, 300 mg/kg, BIDX 8) | inhibition in vivo at 150 mg/kg [5] | inhibition in vivo at 300 mg/kg [6] | Tox/Tot (mice which died / total) (oral, 150 mg/kg, DX 8) | Tox/Tot (mice which died / total) (oral, 300 mg/kg, DX 8) | also measured
CCN=S(=O)(NC(=O)Nc1ccc(Cl)cc1)c1ccc(C)cc1 (stereo not drawn) [Example 4, N-[[(4-chlorophenyl)amino]carbonyl]-N'-ethyl-4-methylbenzenesulfonimidamide] | 0/10 | 87% | 96% | 0/10 | 0/10 | – | – | – | – | Tox/Tot (mice which died / total) (IP, 150 mg/kg, DX 8): 0/10; inhibition in vivo at 150 mg/kg [1]: 10%; inhibition in vivo at 300 mg/kg [2]: 18%
CCCNS(=O)(=NC(=O)Nc1ccc(Cl)cc1)c1ccc(C)cc1 (stereo not drawn) [Example 5] | 0/10 | – | – | – | – | 64% | 69% | 0/10 | 0/10 | Tox/Tot (mice which died / total) (IP, 150 mg/kg, DX 8): 0/10; inhibition in vivo at 150 mg/kg [1]: 34%; inhibition in vivo at 300 mg/kg [2]: 44%
Cc1ccc(S(=O)(=NC(C)C)NC(=O)Nc2ccc(Cl)cc2)cc1 (stereo not drawn) [Example 6, N-[[(4-chlorophenyl)amino]carbonyl]-N'-(1-methylethyl)-4-methylbenzenesulfonimidamide] | – | 93% | 99% | – | 2/10 | – | – | – | – | inhibition in vivo at 18.75 mg/kg (Mus musculus, 6C3HED, po): 18%; inhibition in vivo at 37.5 mg/kg (Mus musculus, 6C3HED, po): 60%; inhibition in vivo at 75 mg/kg (Mus musculus, 6C3HED, po): 86%; Tox/Tot (mice which died / total) (oral, 18.75 mg/kg, BIDX 8): 0/10; Tox/Tot (mice which died / total) (oral, 37.5 mg/kg, BIDX 8): 0/10; Tox/Tot (mice which died / total) (oral, 75 mg/kg, BIDX 8): 0/10; % inhibition of tumor growth (oral, 150 mg/kg, BIDX 8): 99%
Cc1ccc(S(=O)(=NC(=O)Nc2ccc(Cl)cc2)NCC(C)C)cc1 (stereo not drawn) [Example 8] | – | 97% | – | – | 10/10 | – | – | – | – | inhibition in vivo at 18.75 mg/kg (Mus musculus, 6C3HED, po): 29%; inhibition in vivo at 25 mg/kg (Mus musculus, 6C3HED, po, read-out: % inhibition of tumor growth, oral, 25 mg/kg, DX 8): 28%; inhibition in vivo at 37.5 mg/kg (Mus musculus, 6C3HED, po): 60%; inhibition in vivo at 50 mg/kg (Mus musculus, 6C3HED, po, read-out: % inhibition of tumor growth, oral, 50 mg/kg, DX 8): 31%; inhibition in vivo at 75 mg/kg (Mus musculus, 6C3HED, po): 85%; inhibition in vivo at 100 mg/kg (Mus musculus, 6C3HED, po, read-out: % inhibition of tumor growth, oral, 100 mg/kg, DX 8): 51%; Tox/Tot (mice which died / total) (oral, 18.75 mg/kg, BIDX 8): 0/10; Tox/Tot (mice which died / total) (oral, 25 mg/kg, DX 8): 0/10; Tox/Tot (mice which died / total) (oral, 37.5 mg/kg, BIDX 8): 0/10; Tox/Tot (mice which died / total) (oral, 50 mg/kg, DX 8): 0/10; Tox/Tot (mice which died / total) (oral, 75 mg/kg, BIDX 8): 0/10; Tox/Tot (mice which died / total) (oral, 100 mg/kg, DX 8): 0/10; % inhibition of tumor growth (oral, 150 mg/kg, BIDX 8): 98%; % inhibition of tumor growth (oral, 300 mg/kg, BIDX 8): TOX
CCCCCCNS(=O)(=NC(=O)Nc1ccc(Cl)cc1)c1ccc(C)cc1 (stereo not drawn) [Example 9] | – | 65% | 79% | 0/10 | 2/10 | – | – | – | – | –
Cc1ccc(S(=O)(=NC(=O)Nc2ccc(Cl)cc2)NCCO)cc1 (stereo not drawn) [Example 10] | – | – | – | – | – | 40% | 60% | 0/10 | 0/10 | –
Cc1ccc(S(=O)(=NC(=O)Nc2ccc(Cl)cc2)NCCCO)cc1 (stereo not drawn) [Example 11] | – | 65% | 89% | 0/10 | 2/10 | – | – | – | – | –
Cc1ccc(S(=O)(=NC(=O)Nc2ccc(Cl)cc2)NCc2ccccc2)cc1 (stereo not drawn) [Example 12] | – | 73% | 87% | 0/9 | 1/10 | – | – | – | – | –
Cc1ccc(S(=O)(=NC(=O)Nc2ccc(Cl)cc2)NCCc2ccccc2)cc1 (stereo not drawn) [Example 13] | – | 39% | 48% | 0/10 | 0/10 | – | – | – | – | –
Cc1ccc(S(=O)(=NC(=O)Nc2ccc(Cl)cc2)Nc2ccccc2)cc1 (stereo not drawn) [Example 14] | 3/10 | – | – | – | – | 0% | 5% | 0/10 | 0/10 | Tox/Tot (mice which died / total) (IP, 150 mg/kg, DX 8): 2/10; inhibition in vivo at 150 mg/kg [1]: 1%; inhibition in vivo at 300 mg/kg [2]: 38%
CC(=O)NS(=O)(=NC(=O)Nc1ccc(Cl)cc1)c1ccc(C)cc1 (stereo not drawn) [Example 15] | 10/10 | 0% | 84% | 0/10 | 0/10 | 23% | 44% | 0/10 | 0/10 | Tox/Tot (mice which died / total) (IP, 150 mg/kg, DX 8): 0/10; % inhibition of tumor growth (IP, 300 mg/kg, DX 8): TOX; inhibition in vivo at 150 mg/kg [1]: 0%
CC(=O)N(C)S(=O)(=NC(=O)Nc1ccc(Cl)cc1)c1ccc(C)cc1 (stereo not drawn) [Example 16, N-[[(4-chlorophenyl)amino]carbonyl]-N'-acetyl-N'-methyl-4-methylbenzenesulfonimidamide] | – | 98% | 99% | 1/10 | 1/10 | – | – | – | – | –
CC(=O)N(C(=O)N=[S+]([O-])(c1ccc(C)cc1)N(C)C(C)=O)c1ccc(Cl)cc1 (stereo not drawn) [Example 17] | – | 83% | 96% | 0/10 | 0/10 | – | – | – | – | –
Cc1ccc(S(=O)(=NC(=O)Nc2ccc(Cl)cc2)N(C)C)cc1 (stereo not drawn) [Example 18] | 4/8 | – | – | – | – | 45% | 63% | 0/10 | 0/10 | Tox/Tot (mice which died / total) (IP, 600 mg/kg, DX 8): 6/8; inhibition in vivo at 300 mg/kg [2]: 93%; inhibition in vivo at 600 mg/kg (Mus musculus, 6C3HED, ip, read-out: % inhibition of tumor growth, IP, 600 mg/kg, DX 8): 99%
Cc1ccc(S(N)(=O)=NC(=O)N(C)c2ccc(Cl)cc2)cc1 (stereo not drawn) [Example 20] | – | 83% | 93% | 0/10 | 0/10 | – | – | – | – | –

— patent publication US5258406A, “Sulfonimidamides” (priority 1992, dated 1993)
